Assay results from patent US5463071A, “5-membered heterocyclic compounds, processes for preparing them and pharmaceutical compositions containing these compounds” (Dr. Karl Thomae GmbH, priority 1991, dated 1995).
Structures can show the parent of a compound that is named as a salt.

Legend:
[1] = tested on: collagen-induced platelet aggregation in platelet-rich plasma; assay: Antithrombotic activity: inhibition of collagen-induced thrombocyte (platelet) aggregation, Born and Cross method; type: cell-based, healthy volunteers (human); conditions: Homo sapiens, 10 minutes preincubation at 37° C.
Procedure: 2. Antithrombotic activity Method The thrombocyte aggregation is measured using the Born and Cross method (J. Physiol. 170: 397 (1964)) in platelet-rich plasma taken from healthy volunteers. To inhibit coagulation the blood is mixed with 3.14% sodium citrate in a ratio by volume of 1:10. Collagen-induced aggregation The pattern of the decrease in optical density of the platelet suspension is photometrically measured and recorded after the addition of the aggregation-triggering substance. The rate of aggregation is concluded from the angle of inclination of the density curve. The point on the curve where there is maximum light transmittance is used to calculate the optical density. The amount of collagen used is as small as possible but sufficient to produce an irreversible reaction curve. Standard commercial collagen produced by Hormonchemie of Munich is used. Before the addition of the collagen the plasma is incubated for 10 minutes with the substance at 37° C. From the measurements obtained an EC50 is determined graphically, indicating a 50% change in the optical density in terms of the inhibition of aggregation.

human thrombocytes = assay: Fibrinogen binding to human thrombocytes (125I fibrinogen, gel-filtered platelets); conditions: ADP, 20 minutes at ambient temperature, read-out: Fibrinogen-binding test IC50
Procedure: 1. Fibrinogen binding to human thrombocytes The blood obtained by puncturing an antecubital vein is anticoagulated with trisodium citrate (final concentration: 13 mM) and centrifuged for 10 minutes at 170×g. The supernatant platelet-rich plasma is poured onto a Sepharose 2B column (Pharmacia) and eluted with a solution of 90 mM common salt, 14 mM trisodium citrate, 5 mM glucose and 50 mM Tris(hydroxymethyl)aminomethane, adjusted to pH 7.4. The gel-filtered platelets (GFP) appearing before the plasma proteins are used for the binding experiments. 50 μl of a 60 mM calcium chloride solution, 50 μl of a 0.6 mM adenosine diphosphate solution, 100 μl of substance solution or solvent and 50 μl of fibrinogen solution (containing 3 μg of ^125 I fibrinogen) are added to 750 μl of GFP and incubated for 20 minutes at ambient temperature. The non-specific binding is determined in the presence of 3 mg/ml of cold fibrinogen. 900 μof the incubated material are carefully pipetted onto 250 μof silicon oil (AP 38: AR 20, 1:2 v/v, Wacker Chemie) in Eppendorf tubes and centrifuged for 2 minutes at 10,000×g. The aqueous supernatant and part of the oil are drawn off, the tips of the tubes are cut off together with the platelet pellet and the quantity of bound fibrinogen is determined in a gamma counter. The concentration of substance which brings about a 50% inhibition in fibrinogen binding is determined from a series of concentrations and is given as the IC50 value.

[2] = Tolerance after intravenous administration to mice; type: in vivo; conditions: 30 mg/kg intravenous, three mice each

Row | SMILES | EC50 [1] [nM] | IC50 (human thrombocytes) [nM] | deaths after intravenous administration [2]
1 | N=C(N)c1ccc(-c2ccc(-n3cnc(CC(O)C(=O)O)c3)nn2)cc1 (stereo not drawn) [1(1), 1-[-6-(4-amidinophenyl)-3-pyridazinyl]-4-(2-carboxy-2-hydroxy-ethyl)-imidazole] | 90 | 38 | 
2 | Cl.N=C(N)c1ccc(-c2ccc(-n3cnc(CC(N)C(=O)O)c3)nn2)cc1 (stereo not drawn) [1(2), 1-[6-(4-amidino-phenyl)-3-pyridazinyl]-4-(2-amino-2-carboxy-ethyl)-imidazole-hydrochloride] | 90 | 18 | no animals died
3 | N=C(N)c1ccc(-c2nnn(-c3ccc(CCC(=O)O)cc3)n2)cc1 [1(3), 5-(4-amidino-phenyl)-2-[4-(2-carboxy-ethyl)-phenyl]-tetrazole] | 11000 | 220 | 
4 | N=C(N)c1ccc(-c2ccc(-c3nnn(CCC(=O)O)n3)cc2)cc1 [1(4), 5-(4-amidino-4'-biphenylyl)-2-(2-carboxy-ethyl)-tetrazole] | 290 | 44 | 
5 | Cn1cc(-c2ccc(C(=N)N)cc2)nc1-c1ccc(CCC(=O)O)cc1 [1(6), 4-(4-amidino-phenyl)-2-[4-(2-carboxy-ethyl)-phenyl]-1-methyl-imidazole] | 90 | 25 | 
6 | N=C(N)c1ccc(-c2c[nH]c(-c3ccc(CCC(=O)O)cc3)n2)cc1 [1(7), 4-(4-amidino-phenyl)-2-[4-(2-carboxy-ethyl)-phenyl]-imidazole] | 580 | 210 | 
7 | N=C(N)c1ccc(-c2n[nH]c(-c3ccc(CCC(=O)O)cc3)n2)cc1 [1(8), 3-(4-amidino-phenyl)-5-[4-(2-carboxy-ethyl)-phenyl]-1,2,4-triazole] | 4100 | 460 | 
8 | N=C(N)c1ccc(-c2nnc(-c3ccc(CCC(=O)O)cc3)o2)cc1 [1(9), 2-(4-amidino-phenyl)-5-[4-(2-carboxy-ethyl)-phenyl]-1,3,4-oxadiazole] | 8500 | 4200 | 
9 | N=C(N)c1ccc(-c2nnc(-c3ccc(CCC(=O)O)cc3)s2)cc1 [1(10), 2-(4-amidino-phenyl)-5-[4-(2-carboxy-ethyl)-phenyl]-1,3,4-thiadiazole] | 9500 | 2000 | 
10 | N=C(N)c1ccc(-c2ccc(-c3nnc(CCC(=O)O)s3)cc2)cc1 [1(20), 2-(4-amidino-4'-biphenylyl)-5-(2-carboxy-ethyl)-1,3,4-thiadiazole] | 290 | 65 | 
11 | N=C(N)c1ccc(-c2ccc(-n3cnc(CC(C(=O)O)N(Cc4ccccc4)Cc4ccccc4)c3)nn2)cc1 (stereo not drawn) [1(35), 1-[6-(4-amidino-phenyl)-3-pyridazinyl]-4-(2-carboxy-2-dibenzylamino-ethyl)-imidazole] | 6900 | 2400 | 
12 | N=C(N)c1ccc(-c2ccc(-n3cc(CCC(=O)O)c4ccccc43)nn2)cc1 [1(37), 1-[6-(4-amidino-phenyl)-3-pyridazinyl]-3-(2-carboxy-ethyl)-indole] | 2400 | 150 | 
13 | N=C(N)c1ccc(-c2ccc(-c3n[nH]c(SCC(=O)O)n3)cc2)cc1 [1(39), 3-(4-amidino-4'-biphenylyl)-5-carboxymethylthio-1,2,4-triazole] | 3700 | 39 | 
14 | COC(=O)c1cc(CCC(=O)O)oc1-c1ccc(-c2ccc(C(=N)N)cc2)cc1 [1(127), 2-(4-amidino-4'-biphenyl)-5-(2-carboxy-ethyl)-3-methoxycarbonyl-furan] | 14000 | 2500 | 
15 | N=C(N)c1ccc(-c2ccc(-c3oc(CCC(=O)O)cc3C(=O)O)cc2)cc1 [1(128), 2-(4-amidino-4'-biphenyl)-3-carboxy-5-(2-carboxy-ethyl)-furan] | 9000 | 3500 | 
16 | NCc1ccc(-c2ccc(-n3cnc(CC(N)C(=O)O)c3)nn2)cc1 (stereo not drawn) [1(134), 4-(2-amino-2-carboxy-ethyl)-1-[6-(4-aminomethyl-phenyl)-3-pyridazinyl]-imidazole-dihydrochloride] | 510 | 460 | 
17 | COC(=O)C(O)Cc1cn(-c2ccc(-c3ccc(C(=N)N)cc3)nn2)cn1 (stereo not drawn) [2(1), 1-[6-(4-amidino-phenyl)-3-pyridazinyl]-4-(2-hydroxy-2-methoxycarbonyl-ethyl)-imidazole] | 180 |  | 

Row | SMILES | EC50 [1] [nM] | IC50 (human thrombocytes) [nM] | deaths after intravenous administration [2]
18 | COC(=O)C(N)Cc1cn(-c2ccc(-c3ccc(C(=N)N)cc3)nn2)cn1 (stereo not drawn) [2(2), 1-[6-(4-amidino-phenyl)-3-pyridazinyl]-4-(2-amino-2-methoxycarbonyl-ethyl)-imidazole-tris-trifluoroacetate] | 350 | 340 | 
19 | COC(=O)CCc1ccc(-n2nnc(-c3ccc(C(=N)N)cc3)n2)cc1 [2(3), 5-(4-amidino-phenyl)-2-[4-(2-methoxycarbonyl-ethyl)-phenyl]-tetrazole-hydrochloride] | 1600 | 140 | 
20 | COC(=O)CCn1nnc(-c2ccc(-c3ccc(C(=N)N)cc3)cc2)n1 [2(4), 5-(4-amidino-4'-biphenylyl)-2-(2-methoxycarbonyl-ethyl)-tetrazole-hydrochloride] | 370 | 490 | 
21 | COC(=O)CCc1ccc(-c2nc(-c3ccc(C(=N)N)cc3)cs2)cc1 [2(5), 4-(4-amidino-phenyl)-2-[4-(2-methoxycarbonyl-ethyl)-phenyl]-thiazole-hydrochloride] | 7500 | 3100 | 
22 | COC(=O)CCc1ccc(-c2nc(-c3ccc(C(=N)N)cc3)cn2C)cc1 [2(6), 4-(4-amidino-phenyl)-2-[4-(2-methoxycarbonyl-ethyl)-phenyl]-1-methyl-imidazole-hydrochloride] | 210 | 4300 | 
23 | COC(=O)CCc1ccc(-c2nc(-c3ccc(C(=N)N)cc3)c[nH]2)cc1 [2(7), 4-(4-amidino-phenyl)-2-[4-(2-methoxycarbonyl-ethyl)-phenyl]-imidazole-hydrochloride] | 800 | 17000 | 
24 | COC(=O)CCc1ccc(-c2nc(-c3ccc(C(=N)N)cc3)n[nH]2)cc1 [2(8), 3-(4-amidino-phenyl)-5-[4-(2-methoxycarbonyl-ethyl)-phenyl]-1,2,4-triazole] | 6400 | 44000 | 
25 | COC(=O)CCc1ccc(-c2nnc(-c3ccc(C(=N)N)cc3)s2)cc1 [2(10), 2-(4-amidino-phenyl)-5-[4-(2-methoxycarbonyl-ethyl)-phenyl]-1,3,4-thiadiazole] | 220 |  | 
26 | COC(=O)CCc1nnc(-c2ccc(-c3ccc(C(=N)N)cc3)cc2)s1 [2(20), 2-(4-amidino-4'-biphenylyl)-5-(2-methoxycarbonyl-ethyl)-1,3,4-thiadiazole] | 280 | 4900 | 
27 | COC(=O)CCc1cn(-c2ccc(-c3ccc(C(=N)N)cc3)nn2)c2ccccc12 [2(37), 1-[6-(4-amidino-phenyl)-3-pyridazinyl]-3-(2-methoxycarbonyl-ethyl)-indole] | 6100 | 6200 | 
28 | COC(=O)CSc1nc(-c2ccc(-c3ccc(C(=N)N)cc3)cc2)n[nH]1 [2(39), 3-(4-amidino-4'-biphenylyl)-5-methoxycarbonyl-methylthio-1,2,4-triazole] | 5400 |  | 
29 | COC(=O)CCc1cc(C(=O)OC)c(-c2ccc(-c3ccc(C(=N)N)cc3)cc2)o1 [2(126), 2-(4-amidino-4'-biphenylyl)-3-methoxycarbonyl-5-(2-methoxycarbonyl-ethyl)-furan-hydrochloride] | 22000 | 1400 | 
30 | COC(=O)CCc1ccc(-c2nc(-c3ccc(C(=N)NC(=O)OC)cc3)cn2C)cc1 [4(1), 4-(4-methoxycarbonylamidino-phenyl)-2-[4-(2-methoxycarbonyl-ethyl)-phenyl]-1-methyl-imidazole] |  | 1500 | 
31 | COC(=O)CCc1ccc(-c2nc(-c3ccc(C(=N)NC(=O)OC)cc3)c[nH]2)cc1 [4(2), 4-(4-methoxycarbonylamidino-phenyl)-2-[4-(2-methoxycarbonyl-ethyl)-phenyl]-imidazole] |  | 1800 | 
32 | N=C(N)c1ccc(-c2ccc(-n3cnc(CCC(=O)O)c3)nn2)cc1 [Example 1] | 130 | 73 | no animals died
33 | COC(=O)CCc1cn(-c2ccc(-c3ccc(C(=N)N)cc3)nn2)cn1 [Example 2, 1-[6-(4-Amidino-phenyl)-3-pyridazinyl]-4-(2-methoxy-carbonyl-ethyl)-imidazole] | 2200 | 510 | 
